The values that follow come from US7815803B2, “Preparation of samples for LC-MS/MS using magnetic particles” (Roche Diagnostics Operations, Inc., priority 2007, dated 2010).

Series [1] is described as follows: Pooled serum from itraconazole treated patients, LC-MS/MS validation. In kind it is in vivo, human. Particulars: n=9. The method, then:
A validation protocol was performed in three independent analytical series. In each series a five-point calibration was performed using a commercially available calibration material for itraconazole measurement (2,000 μg/l, 1,000 μg/l, 500 μg/l, 250 μg/l, and 125 μg/l; Recipe, Munich, Germany). Aliquots of pooled serum from itraconazole treated patients were analyzed in triplicate in each series to calculate a total coefficient of variation (n=9). Commercially available quality control materials (ClinCheck, Recipe, Munich, Germany) in two concentration ranges (target concentrations 150 μg/l, and 2,900 μg/l) were analyzed in the three series.
Linear calibration lines (r>0.99) were obtained in all series. For the pooled serum a total coefficient of variation of 3.4% was observed (mean concentration 380 μg/l); all quality control samples were found within the predefined accepted ranges (±10% of the target concentrations).

For series [2] the following is noted: in vivo; cited from earlier work.
The conditions of series [3]: in vitro; cited from earlier work.

For the compound `CCC(C)n1ncn(-c2ccc(N3CCN(c4ccc(OCC5COC(Cn6cncn6)(c6ccc(Cl)cc6Cl)O5)cc4)CC3)cc2)c1=O` (centres unmarked) [itraconazole], the “mean concentration in pooled serum” value in series [1] stood at 380 ng/mL. With `COc1c(C)c2c(c(O)c1C/C=C(\C)CCC(=O)OCCN1CCOCC1)C(=O)OC2` [Mycophenolate mofetil, mycophenolate mofetil], the therapeutic trough concentration in series [2] was 1000 to 3500 µg/L. With `C=CC[C@@H]1/C=C(\C)C[C@H](C)C[C@H](OC)[C@H]2O[C@@](O)(C(=O)C(=O)N3CCCC[C@H]3C(=O)O[C@H](/C(C)=C/[C@@H]3CC[C@@H](O)[C@H](OC)C3)[C@H](C)[C@@H](O)CC1=O)[C@H](C)C[C@@H]2OC` [Tacrolimus, tacrolimus], the therapeutic trough concentration in series [2] is 5 to 20 µg/L. Moreover, the “potency relative to cyclosporin” value in series [3] was “up to 100 times”. Turning to `CO[C@H]1C[C@@H]2CC[C@@H](C)[C@@](O)(O2)C(=O)C(=O)N2CCCC[C@H]2C(=O)O[C@H]([C@H](C)C[C@@H]2CC[C@@H](O)[C@H](OC)C2)CC(=O)[C@H](C)/C=C(\C)[C@@H](O)[C@@H](OC)C(=O)[C@H](C)C[C@H](C)/C=C/C=C/C=C/1C` [Sirolimus, sirolimus], the therapeutic trough concentration in series [2] was 5 to 15 µg/L.
